Laboratory results: patent US8507507B2, “Modulators of toll-like receptors” (Gilead Sciences, Inc., priority 2009, dated 2013)
Like-named read-outs stand apart in the source and are kept apart here.

Tested on: human Peripheral Blood Mononuclear Cell (PMBC)
Test: PBMC assay: cytokine (IFN-α) stimulation at 24 hours
Format: cell-based
Conditions: IFN-α in supernatant (Luminex), three fold above background; for minimal effective concentration: read-out: MEC = minimum concentration for induction of IFN-alpha = 3-fold over background
Method: Assays were conducted to determine cytokine stimulation at 24 hours from human Peripheral Blood Mononuclear Cell (PMBC) using the compounds of the present invention. The assays were run in duplicate, with 8-point, half-log dilution curves. The compounds of the present invention were diluted from 10 mM DMSO solution. Cell supernatants are assayed directly for IFNα and 1:10 dilution for TNFα. The assays were performed in a similar fashion as described in Bioorg. Med. Chem. Lett. 16, 4559, (2006). Specifically, cryo-preserved PBMCs were thawed and seeded 96 well plates with 750,000 cells/well in 190 μL/well cell media. The PBMCs were then incubated for 1 hour at 37° C. at 5% CO2. Then, the compounds of the present invention were added in 10 μL cell media at 8 point, half-log dilution titration. The plates were incubated at 37° C. and 5% CO2 for 24 hours and then spinned at 1200 rpm for 10 min, which was followed by collecting supernatant and storing the same at −80° C. Cytokine secretion was assayed with Luminex® (brand of Multiplexing bead-based platform, Luminx® Corporation Austin Tex. USA) and Upstate Biosciences® (Upstate Biosciences®, Charlottesville, Va., USA) multi-plex kits, using a Luminex® analysis instrument. IFN MEC value for a compound was the minimum concentration at which IFN-α production stimulated by the compound reached three fold above background, as determined using the assay method above.

Compound | minimal effective concentration (Homo sapiens, PBMC, 24 h) | further results
COCCOc1nc(N)c2[nH]c(=O)n(Cc3ccc(-c4cc(CN5CCCC5)cc(C(F)(F)F)c4)cc3)c2n1 [AM] | 0.01 to 0.099 µM | 
COCCOc1nc(N)c2[nH]c(=O)n(Cc3ccc(-c4ccc(CN5CCCC5)cc4)cc3)c2c1Cl [AY] | 0.01 to 0.099 µM | 
CCCCOc1nc(N)c2[nH]c(=O)n(Cc3ccc(-c4ccc(CN5CCCC5)cc4)cc3)c2n1 [F] | 0.001 µM | 
COCCOc1nc(N)c2[nH]c(=O)n(Cc3ccc(-c4ccc(C(C)N5CCCC5)cc4)cc3)c2n1 (centres unmarked) [V] | 0.001 µM | 
CCCCOc1nc(N)c2[nH]c(=O)n(Cc3ccc(-c4cccc(CN5CCCC5)c4)nc3)c2n1 [G] | 0.001 µM | 
CCCCOc1nc(N)c2[nH]c(=O)n(Cc3cccc(-c4cccc(CN5CCCC5)c4)c3)c2n1 [B] | 0.01 to 0.099 µM | 
COCCOc1nc(N)c2[nH]c(=O)n(Cc3ccc(-c4ccc(CN5CCCC5)cc4)c(F)c3)c2n1 [AL] | 0.001 µM | 
CCCCOc1nc(N)c2[nH]c(=O)n(Cc3ccnc(-c4ccc(CN5CCCC5)cc4)c3)c2n1 [I] | 0.001 µM | 
CCCCOc1nc(N)c2[nH]c(=O)n(Cc3cnc(-c4ccc(CN5CCCC5)cc4)s3)c2n1 [Example M] | 0.001 µM | 
COCCOc1nc(N)c2[nH]c(=O)n(Cc3ccc(-c4ccc(CN5CCCC5)cc4)c(C(F)(F)F)c3)c2n1 [AN] | 0.001 µM | 
COCCOc1nc(N)c2[nH]c(=O)n(Cc3ccc(-c4ccc(CN5CCCC5)cn4)cc3)c2n1 [AC] | 0.001 µM | 
COCCOc1nc(N)c2[nH]c(=O)n(Cc3ccc(-c4cccc(CN5CCCCC5)c4)cc3)c2n1 [W] | 0.001 µM | 
CCCCOc1nc(N)c2[nH]c(=O)n(Cc3ccc(-c4ccc(CN5CCCC5)nc4)cc3)c2n1 [N] | 0.001 µM | 
CCCCOc1cc2c([nH]c(=O)n2Cc2ccc(-c3ccc(CN4CCCC4)cc3)cc2)c(N)n1 [BC] | 0.001 µM | 
CCCCOc1nc(N)c2[nH]c(=O)n(Cc3ccc(-c4ncc(CN5CCCC5)s4)cc3)c2n1 [Q] | 0.001 µM | 
COCCOc1nc(N)c2[nH]c(=O)n(Cc3ccc(-c4ccc(CN5CCCC5)cc4)cc3Cl)c2n1 [AH] | 0.001 µM | 
CCCCOc1nc(N)c2[nH]c(=O)n(Cc3ccc(-c4cccc(CN5CCCC5)c4)cn3)c2n1 [K] | 0.001 µM | 
Nc1nc(OCC2CCOCC2)cc2c1[nH]c(=O)n2Cc1ccc(-c2ccc(CN3CCCC3)cc2)cc1 [AZ] | 0.001 µM | 
COCCOc1nc(N)c2[nH]c(=O)n(Cc3ccc(-c4cccc(CN5CCOCC5)c4)cc3)c2n1 [Y] | 0.001 to 0.009 µM | 
CCCCOc1nc(N)c2[nH]c(=O)n(Cc3cccc(-c4ccccc4CN4CCCC4)c3)c2n1 [A] | 0.1 to 1 µM | 

Compound | minimal effective concentration (Homo sapiens, PBMC, 24 h) | further results
COCCOc1nc(N)c2[nH]c(=O)n(Cc3ccc(-c4cccc(CN5CCN(C)CC5)c4)cc3)c2n1 [Z] | 0.001 µM | 
COCCOc1nc(N)c2[nH]c(=O)n(Cc3ccc(-c4ccc(CN5CCCC5)cc4)c(Cl)c3)c2n1 [AI] | 0.001 µM | 
CCCCOc1nc(N)c2[nH]c(=O)n(Cc3ccc(-c4cccc(CN5CCCC5)c4)cc3)c2n1 [E] | 0.001 µM | 
Nc1nc(OCC2CCOCC2)cc2c1[nH]c(=O)n2Cc1ccc(-c2ccc(CN3CCCC3)cc2)nc1 [BE] | 0.001 µM | 
CCCCOc1nc(N)c2[nH]c(=O)n(Cc3cnc(-c4cccc(CN5CCCC5)c4)s3)c2n1 [L] | 0.001 µM | 
Nc1nc(OCC2CCOCC2)nc2c1[nH]c(=O)n2Cc1ccc(-c2ccc(CN3CCCC3)nc2)cc1 [AU] | 0.001 µM | 
COCCOc1nc(N)c2[nH]c(=O)n(Cc3ccc(-c4cccc(CN5CCCC5)c4)nc3)c2n1 [AG] | 0.001 µM | 
COCCOc1nc(N)c2[nH]c(=O)n(Cc3ccc(-c4ccc(CCCN5CCCC5)nc4)cc3)c2n1 [AP] | 0.001 µM | 
Nc1nc(OCC2CCOCC2)cc2c1[nH]c(=O)n2Cc1ccc(-c2ccc(CN3CCCC3)nc2)cc1 [BA] | 0.001 µM | 
Nc1nc(OCC2CCOCC2)nc2c1[nH]c(=O)n2Cc1ccc(-c2ccc(CN3CCCC3)cc2)cc1 [AR] | 0.001 µM | 
COCCOc1nc(N)c2[nH]c(=O)n(Cc3cc(-c4cccc(CN5CCCC5)c4)ccc3Cl)c2n1 [AA] | 0.1 to 1 µM | 
COCCOc1cc2c([nH]c(=O)n2Cc2ccc(-c3cccc(CN4CCCC4)c3)cc2)c(N)n1 [AW] |  | minimal effective concentration: 0.001 to 0.009 µM
Nc1nc(OCC2CCOCC2)cc2c1[nH]c(=O)n2Cc1ccc(-c2cccc(CN3CCCC3)c2)nc1 [BD] | 0.001 µM | 
COCCOc1nc(N)c2[nH]c(=O)n(Cc3ccc(-c4ccc(CN5CCCC5)cc4)cc3C#N)c2n1 [AK] | 0.001 µM | 
CCCCOc1nc(N)c2[nH]c(=O)n(Cc3ccc(-c4ccc(CN5CCCC5)c(F)c4)cc3)c2n1 [S] | 0.001 µM | 
CCCCOc1nc(N)c2[nH]c(=O)n(Cc3ccc(-c4ccccc4CN4CCCC4)cc3)c2n1 [D] | 0.001 µM | 
COCCOc1nc(N)c2[nH]c(=O)n(Cc3ccc(-c4cccc(CN5CCCC5)c4)cc3)c2n1 [T] | 0.001 µM | 
CCCCOc1nc(N)c2[nH]c(=O)n(Cc3ccc(-c4ccc(CN5CCCC5)cc4)nc3)c2n1 [H] | 0.001 µM | 
COCCOc1nc(N)c2[nH]c(=O)n(Cc3cc(-c4ccc(CN5CCCC5)cc4)ccc3Cl)c2n1 [AB] | 0.1 to 1 µM | 
CCCCOc1nc(N)c2[nH]c(=O)n(Cc3ccc(-c4ccc(CN5CCCC5)cc4)cn3)c2n1 [J] | 0.001 µM | 

Compound | minimal effective concentration (Homo sapiens, PBMC, 24 h) | further results
CCCCOc1nc(N)c2[nH]c(=O)n(Cc3ccc(-c4cc(CN5CCCC5)ccc4OC)cc3)c2n1 [R] | 0.001 µM | 
COCCOc1nc(N)c2[nH]c(=O)n(Cc3ccc(-c4cccc(CN5CCCC5)c4)c(C(F)(F)F)c3)c2n1 [AO] | 0.001 µM | 
COCCOc1nc(N)c2[nH]c(=O)n(Cc3ccc(-c4ccc(CN5CCCC5)cc4)nc3)c2n1 [AF] | 0.001 µM | 
CCN1CCc2ncc(-c3ccc(Cn4c(=O)[nH]c5c(N)nc(OCCOC)nc54)cc3)cc2C1 [AE] | 0.001 µM | 
Nc1nc(OCC2CCOCC2)nc2c1[nH]c(=O)n2Cc1ccc(-c2cccc(CN3CCCC3)c2)c(C(F)(F)F)c1 [AT] | 0.001 µM | 
COCCOc1nc(N)c2[nH]c(=O)n(Cc3ccc(-c4ccc(CN5CCCC5)cc4)cc3F)c2n1 [AJ] | 0.001 µM | 
Nc1nc(OCC2CCOCC2)nc2c1[nH]c(=O)n2Cc1ccc(-c2cccc(CN3CCCC3)c2)cc1 [AQ] | 0.001 µM | 
Nc1nc(OCC2CCOCC2)nc2c1[nH]c(=O)n2Cc1ccc(-c2ccc(CN3CCCC3)cc2)c(C(F)(F)F)c1 [AS] | 0.001 µM | 
Nc1nc(OCC2CCOCC2)cc2c1[nH]c(=O)n2Cc1ccc(-c2csc(CN3CCCC3)n2)cc1 [BB] | 0.001 to 0.009 µM | 
CCCCOc1cc2c([nH]c(=O)n2Cc2ccc(-c3cccc(CN4CCCC4)c3)nc2)c(N)n1 [BF] | 0.001 µM | 
COCCOc1nc(N)c2[nH]c(=O)n(Cc3ccc(-c4ccc(CN5CCCC5)nc4)cc3)c2n1 [AD] | 0.001 µM | 
CCCCOc1cc2c([nH]c(=O)n2Cc2ccc(-c3ccc(CN4CCCC4)cc3)nc2)c(N)n1 [BG] | 0.001 µM | 
COCCOc1nc(N)c2[nH]c(=O)n(Cc3ccc(-c4ccc(CN5CCOCC5)cc4)cc3)c2n1 [X] | 0.001 µM | 
COCCOc1nc(N)c2[nH]c(=O)n(Cc3ccc(-c4ccc(CN5CCCC5)cc4)cc3)c2n1 [AX] |  | MEC = minimum concentration for induction of IFN-alpha = 3-fold over background: b (b: 1 nM-9 nM)
Nc1nc(OCC2CCOCC2)nc2c1[nH]c(=O)n2Cc1ccc(-c2ccc(CN3CCCC3)cn2)cc1 [AV] | 0.001 µM | 
CCCCOc1nc(N)c2[nH]c(=O)n(Cc3ccc(-c4ccc(CN5CCCC5)cn4)cc3)c2n1 [O] | 0.001 µM | 
CCCCOc1nc(N)c2[nH]c(=O)n(Cc3cccc(-c4ccc(CN5CCCC5)cc4)c3)c2n1 [C] | 0.001 to 0.009 µM | 
CCCCOc1nc(N)c2[nH]c(=O)n(Cc3ccc(-c4nc(CN5CCCC5)cs4)cc3)c2n1 [P] | 0.001 µM | 
COCCOc1nc(N)c2[nH]c(=O)n(Cc3ccc(-c4ccc(CN5CCCC5)cc4)cc3)c2n1 [U] | 0.001 µM | 
